Data set [1] can be described thus: Antiproliferative activity against human EBC1 cells after 72 hrs. To be noted: EBC-1, 72 h.
Data set [2] deals with Hepatocyte growth factor receptor (Homo sapiens) (UniProt P08581). Kind of data set: Inhibition of C-Met (unknown origin) using polu (Glu,Tyr)4:1 substrate at 1 uM after 30 mins incubation by multi-well spectrophotometry.
Data set [3] is described as follows: Antiproliferative activity against human MKN45 cells after 72 hrs. The format is functional, cell-based. The following applies: MKN-45, 72 h.
The nature of data set [4]: Antiproliferative activity against human SNU5 cells after 72 hrs. Type of data set: functional, cell-based. To be noted: SNU-5, 72 h.
For data set [5], the system named is BaF3. The data set is described as follows: Antiproliferative activity against mouse BAF3/TPR-Met cells after 72 hrs. The following applies: BaF3, 72 h. Type of data set: functional, cell-based.
Data set [6] addresses Hepatocyte growth factor receptor (Homo sapiens) (UniProt P08581). Kind of data set: Inhibition of C-Met (unknown origin) using polu (Glu,Tyr)4:1 substrate at 100 uM after 30 mins incubation by multi-well spectrophotometry.
Data set [7] deals with Liver microsome. Kind of data set: Drug formation in beagle dog liver microsomes treated with 2-Fluoro-4-(8-fluoro-3-(quinolin-6-ylmethyl)imidazo[1,2-a]pyridin-6-yl)-N-methylbenzamide after 60 mins by UPLC/Q-TOF MS/MS analysis. The following applies: 1 h. Type of data set: ADME, Canis lupus familiaris.
Data set [8] concerns Liver microsome. The data set is described as follows: Drug formation in human liver microsomes treated with 2-Fluoro-4-(8-fluoro-3-(quinolin-6-ylmethyl)imidazo[1,2-a]pyridin-6-yl)-N-methylbenzamide after 60 mins by UPLC/Q-TOF MS/MS analysis. Type of data set: ADME. To be noted: 1 h.
A short description of data set [9]: Drug formation in monkey liver microsomes treated with 2-Fluoro-4-(8-fluoro-3-(quinolin-6-ylmethyl)imidazo[1,2-a]pyridin-6-yl)-N-methylbenzamide after 60 mins by UPLC/Q-TOF MS/MS analysis. The format is ADME, Macaca mulatta. The following applies: rhesus monkey, 1 h.
Data set [10] deals with Liver. Kind of data set: Drug formation in CD1 mouse liver microsomes treated with 2-Fluoro-4-(8-fluoro-3-(quinolin-6-ylmethyl)imidazo[1,2-a]pyridin-6-yl)-N-methylbenzamide after 60 mins by UPLC/Q-TOF MS/MS analysis. The following applies: 1 h. The format is ADME.

Chain of Hepatocyte growth factor receptor (Homo sapiens) (P08581 whole entry): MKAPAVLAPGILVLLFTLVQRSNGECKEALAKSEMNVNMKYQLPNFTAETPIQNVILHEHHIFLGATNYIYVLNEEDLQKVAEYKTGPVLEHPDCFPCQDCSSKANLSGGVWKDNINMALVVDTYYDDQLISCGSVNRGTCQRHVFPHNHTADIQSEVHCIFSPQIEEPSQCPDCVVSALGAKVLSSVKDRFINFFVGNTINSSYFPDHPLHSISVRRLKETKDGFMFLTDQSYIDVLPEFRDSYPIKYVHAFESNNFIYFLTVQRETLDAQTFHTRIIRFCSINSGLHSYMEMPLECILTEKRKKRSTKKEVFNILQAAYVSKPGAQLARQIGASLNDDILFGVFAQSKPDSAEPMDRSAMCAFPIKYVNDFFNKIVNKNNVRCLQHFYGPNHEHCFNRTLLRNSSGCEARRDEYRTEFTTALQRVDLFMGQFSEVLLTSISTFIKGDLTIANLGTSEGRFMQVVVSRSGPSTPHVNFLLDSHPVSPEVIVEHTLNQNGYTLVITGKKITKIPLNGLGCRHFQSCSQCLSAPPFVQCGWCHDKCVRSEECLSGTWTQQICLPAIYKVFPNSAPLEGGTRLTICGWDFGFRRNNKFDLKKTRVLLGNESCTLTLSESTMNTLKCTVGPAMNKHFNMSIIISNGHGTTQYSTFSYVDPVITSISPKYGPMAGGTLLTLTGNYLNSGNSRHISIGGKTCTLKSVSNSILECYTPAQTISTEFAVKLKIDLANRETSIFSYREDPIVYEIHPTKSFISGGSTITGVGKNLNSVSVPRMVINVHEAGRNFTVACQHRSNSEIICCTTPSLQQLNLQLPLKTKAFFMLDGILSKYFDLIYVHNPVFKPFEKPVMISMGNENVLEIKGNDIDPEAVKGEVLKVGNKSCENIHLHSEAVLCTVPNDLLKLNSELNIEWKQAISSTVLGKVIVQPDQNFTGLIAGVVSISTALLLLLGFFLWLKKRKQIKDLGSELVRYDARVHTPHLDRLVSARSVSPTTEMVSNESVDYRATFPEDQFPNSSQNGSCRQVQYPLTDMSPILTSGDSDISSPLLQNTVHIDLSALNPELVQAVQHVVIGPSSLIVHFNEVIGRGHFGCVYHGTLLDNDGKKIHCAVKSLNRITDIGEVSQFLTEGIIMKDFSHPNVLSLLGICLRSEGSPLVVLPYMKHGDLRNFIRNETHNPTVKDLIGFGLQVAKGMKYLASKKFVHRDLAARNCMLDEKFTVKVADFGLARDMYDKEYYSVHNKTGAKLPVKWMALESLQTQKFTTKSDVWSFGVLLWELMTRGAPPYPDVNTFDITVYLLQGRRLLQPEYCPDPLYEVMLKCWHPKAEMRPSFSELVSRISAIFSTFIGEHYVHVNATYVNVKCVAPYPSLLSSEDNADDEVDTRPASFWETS

In data set [1], `N#Cc1cccc(-c2cc(F)c3ncc(Cc4ccc5ncccc5c4)n3c2)c1` returned an IC50 of 107 nM.

In turn, `CNC(=O)c1cc(-c2cc(F)c3ncc(Cc4ccc5ncccc5c4)n3c2)ccc1Cl` displayed an IC50 in data set [1] of 946 nM.

With `O=C(NCc1cc(F)cc(F)c1)c1ccc(-c2cc(F)c3ncc(Cc4ccc5ncccc5c4)n3c2)cc1F`, half-maximal inhibition in data set [1] (IC50) was put at 53.6 nM.

As for `CN(C)CCNC(=O)c1ccc(-c2cc(F)c3ncc(Cc4ccc5ncccc5c4)n3c2)cc1F`, the IC50 in data set [1] turned out to be 49 nM.

As to `O=C(c1ccc(-c2cc(F)c3ncc(Cc4ccc5ncccc5c4)n3c2)cc1F)N1CCC2(COC2)C1`, the IC50 in [1] was 406 nM.

On to `Cn1cc(-c2cn3c(Cc4ccc5ncccc5c4)cnc3cc2C(F)(F)F)cn1`, for which the inhibition in data set [2] is 5.9%.

In the case of `Fc1cc(F)cc(-c2cc(F)c3ncc(Cc4ccc5ncccc5c4)n3c2)c1`, the IC50 in [1] was determined as 790 nM.

On to `O=C(NC1CCOCC1)c1ccc(-c2cc(F)c3ncc(Cc4ccc5ncccc5c4)n3c2)cc1F`, for which the IC50 in [1] stood at 70.5 nM.

In [1], `O=C(NCCN1CCOCC1)c1ccc(-c2cc(F)c3ncc(Cc4ccc5ncccc5c4)n3c2)cc1F` yielded an IC50 of 52 nM.

As for `O=C(NCCCN1CCCC1)c1ccc(-c2cc(F)c3ncc(Cc4ccc5ncccc5c4)n3c2)cc1F`, in [1], the IC50 is 161 nM.

In the case of `Cn1cc(-c2ccc3nnc(C(F)(F)c4ccc5ncccc5c4)n3n2)cn1` [JNJ-38877605], the IC50 in data set [3] came out at 10.9 nM; in data set [4] it was 15.8 nM; in data set [1], 9.5 nM; in data set [5], 17.6 nM.

As for `CN1CCN(C(=O)c2ccc(-c3cc(F)c4ncc(Cc5ccc6ncccc6c5)n4c3)cc2F)CC1`, the IC50 in [1] was determined as 869 nM.

Regarding `Fc1cc(-c2ccsc2)cn2c(Cc3ccc4ncccc4c3)cnc12`, the IC50 in data set [1] was found to be 444 nM.

As for `C[C@@H](Oc1cc(-c2cnn(C3CCNCC3)c2)cnc1N)c1c(Cl)ccc(F)c1Cl` [CRIZOTINIB], the IC50 is 38.1 nM in data set [3], 20.4 nM in data set [4], 21.8 nM in [1] and 127 nM in data set [5].

In data set [1], `CNC(=O)c1cccc(-c2cc(F)c3ncc(Cc4ccc5ncccc5c4)n3c2)c1` returned a concentration for half-maximal inhibition (IC50) of 400 nM.

In the case of `Fc1cc(-c2ccc(N3CCOCC3)nc2)cn2c(Cc3ccc4ncccc4c3)cnc12`, the IC50 in [1] was 225 nM.

Compound `CNC(=O)c1ccc(-c2cc(F)c3ncc(Cc4ccc5ncccc5c4)n3c2)cc1OC` registered an IC50 in data set [1] of 59.6 nM.

Regarding `Cn1cc(-c2cc(C(F)(F)F)c3ncc(Cc4ccc5ncccc5c4)n3c2)cn1`, in data set [2], the inhibition was determined as 9.6%.

As to `Cn1cc(-c2cn3c(Cc4ccc5ncccc5c4)cnc3cc2C#N)cn1`, the inhibition in data set [6] is 33.3%.

As to `N#Cc1ccc(-c2cc(F)c3ncc(Cc4ccc5ncccc5c4)n3c2)cc1F`, the IC50 in data set [1] was 145 nM.

For the compound `Cn1cc(-c2cc(C#N)c3ncc(Cc4ccc5ncccc5c4)n3c2)cn1`, the inhibition in [6] worked out at 34.5%.

`O=C(NCc1ccccn1)c1ccc(-c2cc(F)c3ncc(Cc4ccc5ncccc5c4)n3c2)cc1F`: the IC50 in data set [1] was determined as 5550 nM.

As to `Fc1cc(-c2cnn(C3CCNCC3)c2)cn2c(Cc3ccc4ncccc4c3)cnc12`, in [1], the midpoint of inhibition, the IC50, lay at 1460 nM.

On to `Cn1cc(-c2cn3c(Cc4ccc5ncccc5c4)cnc3cc2Cl)cn1`, for which the inhibition in [2] amounted to 24.5%.

With `CNC(=O)c1ccc(-c2cc(F)c3ncc(C(O)c4ccc5ncccc5c4)n3c2)cc1F` (stereo not drawn), the Drug metabolism entry in data set [7], in data set [8], in data set [9] and in [10] was “metabolite_detected” throughout. In addition, in data set [1], it took 3020 nM to reach half-maximal inhibition (IC50).

Turning to `COc1ccc(-c2cc(F)c3ncc(Cc4ccc5ncccc5c4)n3c2)cc1F`, the IC50 in data set [1] came out at 407 nM.

In the case of `O=C(NC1CCCNC1)c1ccc(-c2cc(F)c3ncc(Cc4ccc5ncccc5c4)n3c2)cc1F` (stereo not drawn), the IC50 in [1] was found to be 138 nM.

Compound `Cn1cc(-c2cc(F)c3ncc(Cc4ccc5ncccc5c4)n3c2)cn1` yielded an IC50 in data set [1] of 270 nM.

On to `OCCn1cc(-c2cc(F)c3ncc(Cc4ccc5ncccc5c4)n3c2)cn1`, for which the midpoint of inhibition in data set [1], the IC50, lay at 340 nM.

As to `CNC(=O)c1cc(-c2cc(F)c3ncc(Cc4ccc5ncccc5c4)n3c2)ccc1F`, in data set [1], the IC50 came to 246 nM.

For `N#Cc1ccc(-c2cc(F)c3ncc(Cc4ccc5ncccc5c4)n3c2)cn1`, it took 188 nM to reach half-maximal inhibition in data set [1] (IC50).

`O=C(NCC1CCCCN1)c1ccc(-c2cc(F)c3ncc(Cc4ccc5ncccc5c4)n3c2)cc1F` (stereo not drawn) registered an IC50 in data set [1] of 277 nM.

For `CCO/N=C(\C)c1cc(F)c2ncc(Cc3ccc4ncccc4c3)n2c1`, the IC50 in data set [1] was found to be 1480 nM.
